Row | melting point [°C] | SMILES
1 | 334 | NS(=O)(=O)c1ccc(-c2cn(-c3nc(-c4ccc(Cl)c(Cl)c4)cc(C(F)(F)F)n3)cn2)cc1
2 | 83 to 85 | CCC(=O)c1ccc(O)c(C)c1
3 | > 270 | NC(=O)c1cnc(C(N)=O)cn1
4 | 193 to 194 | CN(Cc1ccc(NC(=O)C2=Cc3cc(-c4ccc5c(c4)OCO5)ccc3SCC2)cc1)C1CCOCC1
5 | 172 to 174 | NC(=O)c1cc(COc2ccc([N+](=O)[O-])cc2)ccn1
6 | 132 to 134 | O=S(=O)(Cc1ccccc1)c1cccc2c1ccn2-c1ccnc(N[C@H]2CC[C@H](O)CC2)n1
7 | 126 to 129 | Cc1cccc(-c2[nH]c(CC(C)C)nc2-c2cccc(-c3ccc(C(=O)NC4CCOCC4)cc3)c2)n1
8 | 150 to 152 | Cn1cc(C(=O)c2ccc(Cl)cc2)cc1C(=O)c1ccc(Cl)nc1
9 | 285 to 287 | Cc1ccc2cccnc2c1C(=O)Nc1nnn[nH]1
10 | 156 to 158 | O=C(O)c1cccnn1
11 | 126 | CC(C)Oc1cccc(C(CC(=O)O)NS(=O)(=O)c2ccc3ccccc3c2)c1 (centres undefined)
12 | 215 to 220 | Cn1ccc(=O)c(O)c1CC(O)c1cccnc1 (centres undefined)
13 | 117 to 119 | CCN(CC)CC(=O)N1CCn2c(c(-c3ccccc3)c3cc(Cl)ccc32)C1
14 | 139 to 140 | CCOC(=O)c1nc2c(C(=O)OCC)cccn2c1[N+](=O)[O-]
15 | 96 | O=[N+]([O-])c1cnn(-c2c(Cl)cc(C(F)(F)F)cc2Cl)c1Br
16 | 83 to 85 | Fc1cc(Cl)c(OC(F)F)cc1-n1nc2c(c1Cl)CCCC2
17 | 320 to 326 | O=S1(=O)N=C(NC2CCC2)Nc2cc(Cl)c(Cl)cc21
18 | 149 to 150 | CC(=O)c1cc(-c2ccccc2)c(=O)n2c1-c1sccc1CC2
19 | 181 | COC(=O)C(C)(N)Cc1c[nH]c2ccc(Br)cc12 (racemic)
20 | 85.5 to 86.1 | CSc1cc(C(=O)c2cnoc2C2CC2)ccc1C
21 | 125 to 126 | CCOC(=O)c1cn(-c2ccc(OC)c(OC)c2)cn1
22 | 167 to 168 | Nc1nc(C2CCN(C(=O)Cc3ccc4c(c3)OCO4)CC2)c2ccccc2n1
23 | 193 to 196 | Cc1cc(C)c(/C=C2\C(=O)N(C(=O)CNC(=O)OCc3ccccc3)c3ccccc32)[nH]1
24 | 136 to 137 | O=C(NCCO)c1cccc(-c2cccn3cc(Cc4cccc(C(F)(F)F)c4)nc23)c1

Row | melting point [°C] | SMILES
25 | 155 to 157 | CC(C)c1cc(Cl)cc(C(C)C)c1NC(=O)NS(=O)(=O)c1cccc(C2(C)OCCO2)c1
26 | 222 to 223 | O=C(O)Cc1ccc2nc(Nc3ccccc3)oc2c1
27 | 126 to 128 | NCCCOc1ccc2cc(CC(=O)O)c(=O)n(Cc3ccccc3)c2c1
28 | 109 to 111 | Cc1cc2c(cc1Cl)C(Br)(c1ccccc1Cl)C(=O)N2 (centres undefined)
29 | 178 to 179 | CCCCNc1ncn(-c2c(CC)cccc2CC)c(=O)n1
30 | 293 to 296 | O=C(Nc1cccc(F)c1)Nc1cnnc(Cl)c1
31 | 180 to 182 | OC1CCN(c2nc(-c3ccccc3)nc3ccccc23)C1 (centres undefined)
32 | 300 | Nc1nc2cc3nc(NC(=O)CCl)sc3cc2s1
33 | 263 to 265 | O=C(O)c1cnc2ccc(C3CCCCC3)cc2c1O
34 | 137 to 138 | CCn1nc(C(=O)OCc2ccccc2)cc(Nc2cnccc2C)c1=O
35 | 175 to 176 | Nc1ccc(Sc2cc(I)nc(I)c2)cc1
36 | 75 | O=C(c1ccc(F)cc1)N1CCC[C@H](c2noc(Cc3ccccc3)n2)C1
37 | 169 to 170 | CC(C)n1nc(-c2sc(C(=O)NN(C)C)nc2-c2ccc(F)cc2)ccc1=O
38 | 228 to 230 | COc1ccccc1-c1coc2cc(O)c(Cl)cc2c1=O
39 | 90 to 91 | CN(C(=O)CCS(C)(=O)=O)c1cn(-c2cccnc2)nc1Cl
40 | 234 to 236 | O=C1COc2ccc(C3=Nc4cc(Cl)ccc4SC3c3ccccc3)cc2N1 (centres undefined)
41 | 355 to 358 | Cc1nc2cc(-c3cccc(C=C4SC(=O)NC4=O)c3)cc(C34CC5CC(CC(C5)C3)C4)c2o1
42 | 68 to 70 | CCc1cc(NC(=O)N2CCN(c3cc(OC)cc(OC)c3)CC2)c(N2CCNCC2)nc1C
43 | 262 | CC(=O)OC(C)c1nc2c(C(F)(F)F)cccc2c(O)c1C(=O)Nc1nccs1 (centres undefined)
44 | > 250 | CCN(CC)S(=O)(=O)c1cc2c(ccc3nc(N)[nH]c(=O)c32)cc1Br
45 | 108 to 109 | COC(=O)c1cnc(OC)c(N)c1
46 | 155 to 157 | CCCCCCCCCCc1ccc(NC(=O)c2cnc(C(=O)NCC(=O)OCC)c(OC)c2)cc1
47 | 220 to 222 | NC(=O)C(O)C1OC(n2cnc3c(N)ncnc32)C(O)C1O (centres undefined)
48 | 145 to 147 | COc1ccc(C(=O)NS(=O)(=O)C=Cc2ccc(Cl)c(Cl)c2)cc1OC

Second part, the molecule before the results:

Row | SMILES | melting point [°C]
49 | CN1Cc2c(C(N)=NO)ncn2-c2cccc(Br)c2C1=O | 265 to 266
50 | CC(Oc1ccc(C(=O)c2ccc(O)cc2)c(Cl)c1Cl)C(=O)O (centres undefined) | 208 to 212
51 | CCOC(=O)[C@@]1(F)[C@@H]2CC=C(C(=O)OCc3ccccc3)[C@@H]21 | 90 to 91
52 | O=C1COCC(=O)N1CCCCCCN1CCCCC1 | 121 to 122
53 | CN1CCC23CC(=O)CCC2(O)C1Cc1cccc(O)c13 (centres undefined) | 233 to 236
54 | O=C1CCCC2=C1C(c1ccc(F)c(Br)c1)C1=C(CCCC1)N2 (centres undefined) | 254 to 257
55 | CN(C)C1CCN(c2cc3ccccc3c(=O)[nH]2)CC1 | 204 to 205
56 | O=C(O)c1cc(OCc2ccccc2)c(C(=O)c2c(OCc3ccccc3)cccc2C(=O)OCc2ccccc2)c(OCc2ccccc2)c1 | 151 to 156
57 | Cc1ccc2c(c1)C=Cn1c(n[nH]c1=O)C2 | 232 to 234
58 | CCCCCCCC[C@H](CC(=O)OC(C)(C)C)C(=O)N1C(=O)OC[C@@H]1C(C)C | 58 to 59
59 | CN(C)C1(c2ccccc2)CCC(CNCCc2c[nH]c3ccccc23)CC1 (centres undefined) | 78 to 83
60 | O=C(NC1CCN(CCCC(O)c2ccccc2)CC1)c1ccccc1 (centres undefined) | 155 to 156
61 | CCc1ccc(-c2ccc(-c3ccc(CC)s3)c(F)c2)cc1 | 67
62 | CC1Cc2cc3c(cc2C(c2ccc(N)cc2)=NN1)OCO3 (centres undefined) | 118 to 120
63 | Fc1ccc2[nH]cc(CCCCN3CCN(c4cccc(Cl)c4Cl)CC3)c2c1 | 147 to 148
64 | O=C1CCC(N2C(=O)c3cccc(Nc4ccc5ccccc5c4)c3C2=O)C(=O)N1 (centres undefined) | 235 to 237
65 | CCCCCCCCCCCCOc1ccc2c(c1)C(CCNC(=O)CCC)CC2 (centres undefined) | 68 to 69
66 | Cc1cc(-c2cccc(C3=Nc4cc(N5CCCC5)c(C#N)cc4NC(=O)C3)c2)on1 | 267
67 | COC(=O)C1CCC2C3CCC4CC=CCC4(C)C3C(=O)CC12C (centres undefined) | 169 to 175
68 | COc1cc(N)c(Cl)cc1C(=O)NC1CCN(C(C)CC(C(=O)N(C)C)(c2ccccc2)c2ccccc2)CC1OC (centres undefined) | 198
69 | CCOC(=O)c1ccc(-c2ccc(O)c(-c3ccc(N(CC)CC)c(C(F)(F)F)c3)c2)cc1 | 170
70 | CC(C)(C)c1nnc2ccc(Cl)nn12 | 150 to 152
71 | CC1(n2ncc(-c3ccc(S(C)(=O)=O)cc3)c(-c3ccc(F)cc3)c2=O)CCCC1 | 107 to 110
72 | CON=C(C)c1ccc(-c2ccc(C(=O)n3ccc4cc(OC)c(OCCN(C)C)cc43)cc2)c(C)c1 | 120 to 121
73 | Cc1nsc(OCC(Cl)(Cl)Cl)c1N | 58 to 60
74 | c1ccc(Cn2cnc(-c3cnc(-c4ccccc4)nc3)c2)cc1 | 195

Row | SMILES | melting point [°C]
75 | COc1ccc(C2C(C(=O)c3ccc(C)cc3)=C(O)C(=O)N2c2ccc(C)nn2)cc1 (centres undefined) | 266
76 | COc1cc2c(Nc3cc(OC)c(OC)c(OC)c3)c(C#N)cnc2cc1F | 215 to 217
77 | O=C(N[C@H](Cc1cccc(OC(F)(F)C(F)F)c1)[C@@H](O)c1ccc(Oc2ccccc2)cc1)c1cccc2c1C=CCCC2 (racemic) | 95 to 96
78 | O=C1CCC(CO)N1C(=O)Nc1ccccc1 (centres undefined) | 99 to 101
79 | Cn1nc(-c2ccccc2S(N)(=O)=O)oc1=O | 168 to 173
80 | COC(=O)c1cc2ncnn2nc1NCCCN1CCC(OC(c2ccccc2)c2ccccc2)CC1 | 120 to 122
81 | CCCc1c(OCCCOc2ccc(-c3cscn3)c(OC)c2CCC)ccc2c1OC(CCC(=O)O)CC2 (centres undefined) | 110 to 113
82 | C#CCNc1ccc(C(C)=O)cc1 | 97 to 100
83 | Cc1ccc(Nc2nnc(Cc3ccncc3)c(C)c2C)cc1 | 68 to 70
84 | CCC1(CC)OC(=O)N(c2cccc(Cl)c2)c2ccccc21 | 150 to 151
85 | COC(=O)C1C(=O)CCN(N2CCCCC2)C1=O (centres undefined) | 157 to 159
86 | O=c1ccc(S(=O)(=O)c2cc3c(=O)[nH]ccc3o2)n[nH]1 | > 275
87 | COc1ccc(-c2coc3ccc(-c4nnc(SCc5cccc(C#N)c5)o4)cc23)cc1 | 145 to 146
88 | COc1ccc(C(=C(c2ccc(OC)cc2)C(F)(F)F)c2ccc(F)cc2)cc1 | 75 to 77
89 | C#CCOc1ccc([N+](=O)[O-])cc1 | 108 to 110
90 | O=C1CN2Cc3ccccc3-c3cccc1c32 | 199 to 202
91 | CC1(C)NC(=O)N(CC(CCS(=O)(=O)c2ccc(-c3ccc(C(F)(F)F)cc3)cc2)N(O)C=O)C1=O (centres undefined) | 125
92 | C[C@@H]1[C@H]2C(=O)N(Cc3ccccc3)C(=O)[C@H]2[C@@H](c2ccc(C(N)=NO)cc2)N1C (racemic) | 194 to 196
93 | O=C(Oc1ccc(OC(=O)c2ccc(O)c(O)c2)c2ccccc12)c1ccc(O)c(O)c1 | 261
94 | C=C1c2cnccc2CC(=O)c2ccccc21 | 98 to 110
95 | O=C(O)c1cnc(S)n1C(c1ccccc1)c1ccccc1 | 158
96 | COc1cc2c(cc1OC)C(C(C)C)C(=O)CC2 (centres undefined) | 77 to 79
97 | Cc1ccc(S(=O)(=O)OCC2Cn3c(nc4c(C)cccc43)-c3cccc(Cl)c3O2)cc1 (centres undefined) | 168 to 169
98 | c1ccc(Sc2cc(Sc3ccccc3)cc(Sc3ccccc3)c2)cc1 | 40 to 41
99 | CCNc1ccc2ccccc2c1-c1c(P(c2ccccc2)c2ccccc2)ccc2ccccc12 | 83.1

— a melting point compilation (Tetko et al.; mined from patent text by program, amines drawn as free bases though some values may be those of a salt)
